Data taken from patent US20070092551A1, “Therapeutic agent” (TAKARA BIO INC., priority 2003, published 2007).

Columns and labels:
[1] = system: type II diabetes model mouse; experiment: Glucose tolerance test, 4-hydroxyderricin and combined use with xanthoangelol; assay type: in vivo; details: male KK-Ay mice
Description: Amelioration effects for glucose tolerance by 4-hydroxyderricin and combined use of 4-hydroxyderricin and xanthoangelol were examined using a type II diabetes model mouse. Experiments were carried out with five male 12-week old KK-Ay mice (CLEA Japan, Inc.) per group. 4-Hydroxyderricin which was previously suspended or dissolved in an olive oil so as to have a concentration of 4% (w/v) was forcibly orally administered to a group to be administered with 4-hydroxyderricin at 200 mg/kg once a day for consecutive days. 4-Hydroxyderricin and xanthoangelol which were each suspended or dissolved in an olive oil to 4% (w/v) were mixed in equal volumes, and the mixture was forcibly orally administered to a group to be administered with a combined use of 4-hydroxyderricin and xanthoangelol once a day for consecutive days so that each administration concentration became 100 mg/kg. An olive oil was administered to the mice in the control group at 5 mL/kg in the same manner. The mice were fasted over one night spanning from the fifteenth day to the sixteenth day from administration, and a glucose tolerance test was carried out. Four hours after the administration of the sample, a 10% glucose solution was intraperitoneally administered at 1 g/kg. Thirty minutes before glucose tolerance and 30 minutes after the tolerance, blood was collected from veins of the tail, and the blood glucose level was determined with a simple blood glucose meter, ACCU-CHEK Compact (Roche Diagnostic K.K.).

[2] = system: mature adipocytes (3T3-L1 cells); experiment: Glucose uptake enhancement inhibited by cytochalasin B; assay type: cell-based
Description: The influence of cytochalasin B on 2-deoxyglucose uptake into matured adipocytes during the stimulation with the sample in the adipocytes was tested in accordance with the method shown in Example 83 on whether or not the enhancing action of 4-hydroxyderricin on glucose uptake shown in Example 83 is inhibited by cytochalasin B, which is an inhibitor of a glucose transporter.
Specifically, as a sample, a group with addition of a dimethyl sulfoxide solution of 4-hydroxyderricin so as to have a final concentration of 7.8 μM was set. Here, there were set a group without addition of the sample as a negative control and a group with addition of insulin so as to have a final concentration of 1 μg/mL as a positive control. Furthermore, there was set a group with addition of cytochalasin B (manufactured by nacalai tesque, 10435-81) to each group so as to have a final concentration of 40 μM in the same time as the time of addition of insulin. Thereafter, 2-deoxy-[1,2-^3H(N)]-glucose subjected to uptake into the adipocytes was determined in the same manner.

[3] = system: type II diabetes model mice; experiment: Amelioration effects on diabetes of xanthoangelol (blood glucose level, serum insulin); assay type: in vivo; details: female KK-Ay mice
Description: Pathological amelioration effects of xanthoangelol were examined using type II diabetes model mice. Experiments were carried out with five female 12-week old KK-Ay mice (CLEA Japan, Inc.) per group. Xanthoangelol was suspended or dissolved in an olive oil so as to have a concentration of 4% (w/v), and the suspension or solution was forcibly orally administered to the mice once a day at 200 mg/kg for consecutive days. The olive oil was administered to mice in the control group at 5 mL/kg in the same manner. On the day before the beginning of administration, on the fourth day and on the twenty-second day, the blood glucose level was determined in the same manner as in Example 88. In addition, on the twenty-second day, blood was simultaneously collected from abdominal cava, and the insulin concentration in serum was determined with Lebis Insulin Kit (Shibayagi Co., Ltd.). […] During the experimental period, no changes were found in body weight and general symptoms.

[4] = 200 mg/kg oral once a day in olive oil, mean ± standard error

Row | SMILES | amelioration effects for glucose tolerance (in words) ([1]; 4-hydroxyderricin 200 mg/kg alone or combined use 100 mg/kg each) | Blood Glucose Level, Before Glucose Tolerance ([1]; 200 mg/kg oral once a day, sixteenth day, fasted, 30 minutes before glucose 1 g/kg i.p.) [mg/dL] | Blood Glucose Level, 30 Minutes After Tolerance ([1]; 200 mg/kg oral once a day, sixteenth day, fasted, glucose 1 g/kg i.p.) [mg/dL] | 2-deoxy-[1,2-3H(N)]-glucose uptake ([2]; 4-hydroxyderricin 7.8 μM, compared to the negative control) | 2-deoxy-[1,2-3H(N)]-glucose uptake on addition of cytochalasin B ([2]; cytochalasin B 40 μM added to the 4-hydroxyderricin 7.8 μM, insulin 1 μg/mL and negative control groups) | action of ameliorating insulin resistance ([3]; 200 mg/kg oral once a day) | blood glucose level and insulin concentration (in words) ([3]; 200 mg/kg oral once a day) | Blood Glucose Level, Fourth Day [3, 4] [mg/dL] | Blood Glucose Level, Twenty-second Day [3, 4] [mg/dL] | changes in body weight and general symptoms ([3]; 200 mg/kg oral once a day, experimental period) | Blood Glucose Level, Previous Day ([3]; day before beginning of administration, 200 mg/kg oral once a day in olive oil, mean ± standard error) [mg/dL] | Insulin (concentration in serum) ([3]; twenty-second day, 200 mg/kg oral once a day in olive oil, mean ± standard error) [ng/mL]
1 | COc1ccc(C(=O)/C=C/c2ccc(O)cc2)c(O)c1CC=C(C)C [4-Hydroxyderricin, 4,2′-Dihydroxy-3′-prenyl-4′-methoxychalcone] | amelioration effects for glucose tolerance were found | 93 ± 2 | 224 ± 11 | enhancement of 2-deoxy-[1,2-^3H(N)]-glucose uptake | almost completely inhibited |  |  |  |  |  |  | 
2 | CC(C)=CCC/C(C)=C/Cc1c(O)ccc(C(=O)/C=C/c2ccc(O)cc2)c1O [Xanthoangelol, 4,2′,4′-Trihydroxy-3′-geranylchalcone] |  |  |  |  |  | action of ameliorating insulin resistance was found | lowered | 192 ± 16 | 209 ± 8 | no changes | 249 ± 13 | 31 ± 7
